Results taken from PMC5316807, “Protective role of fructokinase blockade in the pathogenesis of acute kidney injury in mice” (Nature Communications, 2017).

Target: T1, fructokinase (ketohexokinase, KHK) (Homo sapiens, UniProt P50053)
T1 sequence (P50053 1-298): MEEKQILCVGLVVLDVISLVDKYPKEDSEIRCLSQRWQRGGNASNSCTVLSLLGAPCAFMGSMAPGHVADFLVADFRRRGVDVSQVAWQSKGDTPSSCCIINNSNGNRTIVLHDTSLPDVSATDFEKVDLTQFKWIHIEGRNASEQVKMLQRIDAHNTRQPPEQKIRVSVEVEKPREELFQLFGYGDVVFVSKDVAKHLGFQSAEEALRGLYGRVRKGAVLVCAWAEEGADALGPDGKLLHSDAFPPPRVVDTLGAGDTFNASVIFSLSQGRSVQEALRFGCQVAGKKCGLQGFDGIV
Experiment: fructose-dependent ATP depletion assay in HK-2 (human proximal tubule) cell lysates, KHK-deficient HK-2 cells as background control
Format: biochemical

IC50: 11.2 µM
Structure (SMILES): O=c1cc(-c2ccc(O)c(O)c2)oc2cc(O)cc(O)c12 [luteolin]
